# Measured values: the C3SDB collision cross section collection
# Values joined by “and” are separate entries in the source; they are usually repeats but may differ in a detail not shown here. Identical values can stand only once.
# Details: [M+H-H2O]+; instrument: TW; calibrated with polyalanine and drug standards
row,collision cross section (N2) [Å²],Structure (SMILES)
1,254.2,COC(=O)C[C@H]1C2(C)CC34OC5(C)O[C@@]6([C@H](OC)C(OC(=O)C(C)C)[C@]7(C)C(/C(=C(/OC)C(C)C)C(=O)O[C@H]7c7ccoc7)[C@@]6(O5)[C@H](OC)[C@@]3(OC)C2OC(C)=O)[C@]14C (stereo not given in full) [CHUKRASIN METHYL ETHER]

# Same assay, conditions: [M+H]+; instrument: TW; calibrated with polyalanine and drug standards
row,collision cross section (N2),Structure (SMILES)
1,153.9 Å²,COC(=O)N=N/C=C1\C=[N+]([O-])c2ccccc2N1O [CARBADOX]
2,189.1 Å²,COc1ccccc1OCCNCC(O)COc1cccc2[nH]c3ccccc3c12 (stereo not given) [CARVEDILOL]
3,145.9 Å²,C[C@@H]1CC[C@H]2C(C)(C)[C@H]3C[C@@]12CC[C@@]3(C)O [CEDROL]
4,186.1 Å²,Cc1ccc(-c2cc(C(F)(F)F)nn2-c2ccc(S(N)(=O)=O)cc2)cc1 [CELECOXIB]
5,178.5 Å²,CC1=C(C(=O)O)N2C(=O)[C@@H](NC(=O)[C@H](N)c3ccccc3)[C@H]2SC1 [CEPHALEXIN]
6,169.8 Å²,CN(C)CCCN1c2ccccc2Sc2ccc(Cl)cc21 [CHLORPROMAZINE]
7,187.2 Å²,CC(C)CCCC(C)C1CCC2C3CCC4CC(=O)CCC4(C)C3CCC12C (stereo not given) [CHOLESTAN-3-ONE]
8,151.7 Å²,O=c1cc(-c2ccccc2)oc2cc(O)cc(O)c12 [CHRYSIN]
9,155.7 Å²,CN=C(NC#N)NCCSCc1nc[nH]c1C [CIMETIDINE]
10,185.3 Å² and 173.3 Å²,O=C(O)c1cn(C2CC2)c2cc(N3CCNCC3)c(F)cc2c1=O [CIPROFLOXACIN]
11,178.9 Å²,CN(C)CCCC1(c2ccc(F)cc2)OCc2cc(C#N)ccc21 (stereo not given) [CITALOPRAM]
12,150.2 Å²,CC1=C2C(=CO[C@H](C)[C@H]2C)C(=O)C(C(=O)O)=C1O [CITRININ]
13,146.6 Å²,CC(C)(Oc1ccc(Cl)cc1)C(=O)O [CLOFIBRIC ACID]
14,186 Å²,COC(=O)[C@H]1[C@H]2C[C@H]3c4[nH]c5ccccc5c4CCN3C[C@@H]2CC[C@@H]1O [CORYNANTHINE]
15,168 Å²,C[C@H]1COC2=C1C(=O)C(=O)c1c2ccc2c1CCCC2(C)C [CRYPTOTANSHINONE]
16,213.9 Å²,COc1cc2c(cc1OC)Cc1cc(OC)c(OC)cc1Cc1cc(OC)c(OC)cc1C2 [CYCLOVERATRYLENE]
17,123.2 Å²,Cc1c(O)c(=O)ccn1C [DEFERIPRONE]
18,181.1 Å²,CC(C)c1ccc2c(c1)CCC1C(C)(C(N)=O)CCCC21C (stereo not given) [DEHYDROABIETAMIDE]
19,177.9 Å²,"COc1ccc2c(c1)OCC(Cc1ccc(OC)c(OC(C)=O)c1)C2=O (stereo not given) [DEOXYSAPPANONE B 7,3'-DIMETHYL ETHER ACETATE]"
20,176.6 Å²,COc1ccc2c(c1)OCC(Cc1ccc(OC)c(OC)c1)C2=O (stereo not given) [DEOXYSAPPANONE B TRIMETHYL ETHER]

# Continued, compound first:
row,Structure (SMILES),collision cross section (N2)
1,O=C(O)CCNC(=O)c1ccccc1 [BETAMIPRON],138.7 Å²
2,CC(C)(Oc1ccc(CCNC(=O)c2ccc(Cl)cc2)cc1)C(=O)O [BEZAFIBRATE],177.3 Å²
3,COc1ccc(-c2coc3cc(O)cc(O)c3c2=O)cc1 [BIOCHANIN A],160.9 Å²
4,OC(CCN1CCCCC1)(c1ccccc1)C1CC2C=CC1C2 (stereo not given) [BIPERIDEN],175.7 Å²
5,CC(C)(c1ccc(O)cc1)c1ccc(O)cc1 [BISPHENOL A],147.1 Å²
6,CC1(C)CC2C1CC[C@]1(CBr)CCC3C(CC(=O)O)C(=O)O[C@@]32C1 (stereo not given in full) [BROMO-3-HYDROXY-4-(SUCCIN-2-YL)-CARYOLANE gamma-LACTONE],183.4 Å²
7,COc1cc2c(cc1OC)[C@@]13CCN4CC5=CCO[C@H]6CC(=O)N2[C@H]1[C@H]6[C@H]5C[C@H]43 [BRUCINE],190.9 Å²
8,CCOc1ccc(NC(=O)CC(C)O)cc1 (stereo not given) [BUCETIN],152.5 Å²
9,CCCC(=O)Nc1ncnc2c1ncn2[C@@H]1O[C@@H]2COP(=O)(O)O[C@H]2[C@H]1OC(=O)CCC [BUCLADESINE],215.3 Å²
10,CCCCNc1cc(C(=O)O)cc(S(N)(=O)=O)c1Oc1ccccc1 [BUMETANIDE],185.1 Å²
11,CC(NC(C)(C)C)C(=O)c1cccc(Cl)c1 (stereo not given) [BUPROPION],157.5 Å²
12,CCCCN(CCCC)CCCOC(=O)c1ccc(N)cc1 [BUTACAINE],179 Å²
13,Clc1ccc(CCC(Cn2ccnc2)Sc2c(Cl)cccc2Cl)cc1 (stereo not given) [BUTOCONAZOLE],186.5 Å²
14,Cn1c(=O)c2c(ncn2C)n(C)c1=O [CAFFEINE],136.9 Å²
15,CCOc1nc2cccc(C(=O)OC(C)OC(=O)OC3CCCCC3)c2n1Cc1ccc(-c2ccccc2-c2nn[nH]n2)cc1 (stereo not given) [CANDESARTAN CILEXTIL],241.5 Å²
16,C[C@]12CCC(=O)C=C1C=C[C@@H]1[C@@H]2CC[C@@]2(C)[C@H]1CC[C@@]21CCC(=O)O1 [CANRENONE],183 Å²
17,COC(=O)C[C@H]1C(C)(C)C(=O)[C@@H]2CC3C4=CC(=O)O[C@@H](c5ccoc5)[C@]4(C)CCC3[C@@]1(C)C2=O (stereo not given in full) [CARAPIN],206.1 Å²
18,CCCC(C)(COC(N)=O)COC(=O)NC(C)C (stereo not given) [CARISOPRODOL],149.1 Å²
19,COc1cc(OC)c2c(c1)O[C@H](c1ccc(OC)c(OC)c1)[C@@H](O)C2 [CATECHIN TETRAMETHYLETHER],174.4 Å²
20,CC1=C(O)C(=O)C=C2C1=CC=C1[C@@]2(C)CC[C@@]2(C)[C@@H]3C[C@](C)(C(=O)O)CC[C@]3(C)CC[C@]12C [CELASTROL],205.6 Å²
21,O=C(O)CCCc1ccc(N(CCCl)CCCl)cc1 [CHLORAMBUCIL],168.7 Å²
22,CN1C(=O)CCS(=O)(=O)C1c1ccc(Cl)cc1 (stereo not given) [CHLORMEZANONE],158.2 Å²
23,CC(=O)Oc1ccc(Cl)c2cccnc12 [CHLOROACETOXYQUINOLINE],141.1 Å²
24,C=C[C@H]1CN2CC[C@H]1C[C@@H]2[C@@H](O)c1ccnc2ccccc12 [CINCHONINE],166.3 Å²
25,CC1(C)C(=O)C=C[C@@]2(C)C1CC(=O)[C@]1(C)C2CC[C@@]2(C)[C@H](c3ccoc3)OC(=O)[C@H]3O[C@]321 (stereo not given in full) [DEACETOXY-7-OXOGEDUNIN],196.6 Å²

# Same assay, conditions: [M+Na]+; instrument: TW; calibrated with polyalanine and drug standards
row,collision cross section (N2) [Å²],Structure (SMILES)
1,198.1,"COC(=O)CC[C@@H](C)[C@H]1CC[C@H]2[C@@H]3[C@H](O)C[C@@H]4C[C@H](O)CC[C@]4(C)[C@H]3C[C@H](O)[C@]12C [CHOLIC ACID, METHYL ESTER]"
2,191.9,C=C[C@@]1(C)CC(=O)[C@]2(O)[C@@]3(C)[C@@H](O)CCC(C)(C)[C@@H]3[C@H](O)[C@H](OC(C)=O)[C@@]2(C)O1 [COLFORSIN]
3,196.7,C[C@H](CCC(=O)O)[C@H]1CC[C@H]2[C@@H]3CC[C@@H]4C[C@H](O)CC[C@]4(C)[C@H]3C[C@H](O)[C@]12C [DEOXYCHOLIC ACID]

row,Structure (SMILES),collision cross section (N2) [Å²]
1,CC1(C)C(C=C(Cl)Cl)C1C(=O)OC(C#N)c1cccc(Oc2ccccc2)c1 (stereo not given) [CYPERMETHRIN],200.6
